From paper PMC7203245, “Lacosamide intake during pregnancy increases the incidence of foetal malformations and symptoms associated with schizophrenia in the offspring of mice” (Scientific Reports, 2020)

What was measured:
[1] = Nissl staining and immunohistochemistry (calbindin, calretinin, doublecortin) of adult brain; assay type: in vivo, mice
Experimental: (§1) As formerly described by[59], mice from each experimental group were anesthetized with 4% of chloral hydrate (10 µL/g of weight) and trans-cardiacally perfused with cold saline. Brains were removed and fixed by immersion for 24 h at 4 °C in 4% paraformaldehyde prepared in phosphate-buffered saline (PBS). Tissue was cryoprotected in 30% sucrose-PBS for 2 days at 4 °C and coronal brain sections (50 µm) were then processed for Nissl staining and free-floating immunohistochemistry. Sections encompassed roughly between 2.80 mm to -2.80 mm from Bregma[60] were selected for Toluidine blue staining and immunohistochemical processing. Brain slices from all animals were processed simultaneously in each assay. Immunohistochemistry assays were performed with free-floating sections and an avidin-biotinylated peroxidase method. Primary antibodies used were calbindin (CB, 1:500, Santa Cruz, sc-365360), calretinin (CR, 1:1000, Santa Cruz, sc-26512) and doublecortin (DCX, 1:500, Santa Cruz, sc-8066). Secondary biotinylated antibodies were used (1:500). […] Several control sections were processed without the primary antibody, showing no signal. To minimize variability, at least 2 sections from each area were analysed per animal on a bright-field DMRB RFY HC microscope (Leica) using a 10X objective. For DCX quantification images were taken using a 20X objective and later a whole image of dentate gyrus was reconstructed using Photoshop tiling function. In each section, the total number of labelled cells per area of tissue was quantified using Image-J software (downloaded as a free software package from the public domain: http://rsb.info.nih.gov/ij/download.html). 6 different animals were processed for each primary antibody and pharmacologic treatment from 10 litters.

adult mouse neocortex = experiment: as above; assay type: in vivo, mice
Experimental: as §1

pups [2] = experiment: Litter loss, neonatal lethality and body weight of pups born to dams given LCM during gestation; assay type: in vivo, mice; conditions: for weight gain from P2 to P13: higher dose
Experimental: Thus, we used 10, 40, 80 and 120 mg/kg in mice, which corresponded to 56.7, 227, 454 and 681 mg/day in humans, considering an average weight of human to be 70 kg and that of mice to be 30 gr[52],[55]. Controls were administered the vehicle alone: saline solution 0.9% w/v. […] A total of 32 dams were initially treated daily, two days before mating and until the 14th day post-coitus. […] In the breastfeeding period, females were not under treatment given that a person will bottle feed the baby if they were on medication.
(§2) In this part of the study, dams were treated until the day of delivery. After analysing the embryo toxicity data, the treatments were categorized as controls (saline vehicle solution alone), low dose (40 mg/kg) and high dose (120 mg/kg). […] The day of birth was designated as postnatal day (P) P0 and the litter size delivered by each dam was recorded, checking each pup for gross abnormalities. Pups were nursed by their natural dams until weaning and from PD 2, the pups were weighed and neonatal behavioural tests were carried out on 12 control mice, 12 low dose and 10 high dose mice from 7 litters. During testing whole litters were separated from the dams and maintained for 30 min in a warm environment. At this stage, males and females were pooled for neurodevelopmental screening. All testing was performed between 07:30 a.m. and 12:00 a.m., and the mice were weighed before performing the tests.

pups [3] = experiment: Neonatal behavioural tests of Fox's battery (developmental landmarks, locomotion, reflexes); assay type: in vivo, mice; conditions: P1 to P13; dams given 40 or 120 mg/kg during gestation
Experimental: as §2, with “During testing whole litters were separated from the dams and maintained for 30 min in a warm environment. At this stage, males and females were pooled for neurodevelopmental screening. All testing was performed between 07:30 a.m. and 12:00 a.m., and the mice were weighed before performing the tests.” left out
The animal was placed face up, and the time taken to turn over and adopt a prone position with all four feet on the ground was assessed. […]
A mouse was placed at the edge of the table, with its forepaws and head extending over the edge. The response was scored as positive if the mouse turned around and crawled away at least 45° from the “cliff”. […]
The animal was placed face down on a 30° incline and the latency to turn 180° was recorded. […]
The total number of degrees turned by the pup during a 30 s period was recorded. […] The number of degrees was only scored in terms of completed 90° segments.
The latency of a mouse to walk a distance exceeding its body length on all four legs was measured on a flat surface covered with green paper. […]

adult male mice = experiment: Object recognition memory; assay type: in vivo; conditions: 1 hour after the training session; LCM in utero
Experimental: All trials were performed by an experimenter blind to the drug treatment.
Object recognition memory. Mice were tested in a rectangular arena (55 x 40 x 40 cm) situated in a room with dim lighting and constant background noise. The object recognition protocol was described extensively elsewhere^2. Briefly, two equal objects were placed in the arena during a 15 minutes training phase and the animal’s memory of the original object was assessed by comparing the amount of time spent exploring the novel object against that for the familiar one in two sessions (of 10 minutes) performed 1 and 24h after training (for short-term and long-term memories [STM and LTM] respectively). The time spent exploring each object was recorded and the relative exploration of the novel object was expressed by a discrimination index [DI = (tnovel-tfamiliar)/(tnovel+tfamiliar)]. The criteria for exploration were based strictly on active exploration. Exploration of an object was defined as directing the nose toward the object at a distance of 1.5 cm and/or touching the object with the nose or vibrissae. Circling or sitting on the object were not considered exploratory behaviours.

[4] = higher dose (120 mg/kg) to dams during gestation
[5] = lower dose (40 mg/kg) to dams during gestation

COC[C@@H](NC(C)=O)C(=O)NCc1ccccc1 [LCM, R-2-acetamido-N-benzyl-3-methoxypropionamide]
DCX labelling in ventral DG ([1]; 40 mg/kg in utero): 13.46 ± 1.03 cells/100 µm²
DCX labelling in ventral DG ([1]; 120 mg/kg in utero): 9.75 ± 0.85 cells/100 µm²
number of CR neurons in PrL cortex (adult mouse neocortex; 40 mg/kg in utero): 10.83 ± 1.12 cells/100 µm²
number of CR neurons in RSA cortex (adult mouse neocortex; 40 mg/kg in utero): 16.18 ± 1.23 cells/100 µm²
number of calbindin (CB) labelled neurons in the amygdala (adult mouse neocortex; 40 mg/kg in utero): 23.28 ± 2.98 cells/100 µm^2
number of CR neurons in PrL cortex (adult mouse neocortex; 120 mg/kg in utero): 13.03 ± 1.08 cells/100 µm²
number of CR neurons in RSA cortex (adult mouse neocortex; 120 mg/kg in utero): 16.94 ± 0.7 cells/100 µm²
number of calbindin (CB) labelled neurons in the amygdala (adult mouse neocortex; 120 mg/kg in utero): 13 ± 1.8 cells/100 µm^2
dams that never gained weight, suggesting that they lost their litters (pups [2]; 40 mg/kg LCM daily from second day of gestation to birth): 1/5
dams that never gained weight, suggesting that they lost their litters (pups [2]; 120 mg/kg LCM daily from second day of gestation to birth): 2/8
body weight differences in adults (pups [2]; both LCM doses (40 and 120 mg/kg in utero), adult mice): disappeared
neonatal lethality (%) (pups [2]; [4]): 15.38%
neonatal lethality (pups) (pups [2]; [4]): 10/65
weight gain from P2 to P13 (pups [2]; litter that died in the perinatal nursing period): 2 g
weight gain from P2 to P13 (pups [2]; other pups under the same condition): 6.1 g
neonatal lethality (%) (pups [2]; [5]): 9%
neonatal lethality (pups) (pups [2]; [5]): 3/33
pups of an entire litter that died in the perinatal nursing period (P15-16) (pups [2]; one dam exposed to higher dose): 11 pups
postnatal somatometric development and reflexological analyses (body weight, developmental landmarks, locomotor activity, balance reflexes, suspension test) (pups [3]): dose-dependent delay
short-term memory in object recognition (adult male mice): no effects
